The record followed here is a melting point compilation (Tetko et al.; mined from patent text by program, amines drawn as free bases though some values may be those of a salt).

A value given as a limit tells only on which side of the number the result lay.

With `CC(CNC(=O)OC(C)(C)C)C(=O)NC(CC(=O)OCc1ccccc1)C(N)=O` (mixture of isomers), the melting point fell in the range of 135 to 136 °C. On to `CC(=O)SCC(Cc1ccccc1)C(=O)Nc1ccc(C)c(C(=O)O)c1C` (stereo not drawn), for which the melting point was 187 to 189 °C.

`O=C(O)CCCCCCCCCCCCO` registered a melting point of 77 to 78 °C. As to `Cc1ccc(-c2ccc(C(=O)Nc3ccc4cc(CN5CCCCCC5)cnc4c3)cc2)cc1`, the melting point is 209 °C. Then `CSC1=N[C@@H](c2ccccc2)[C@H](c2ccccc2)N1` (relative stereo), with 132 to 134 °C; and `CCCN(CCC)Cc1cnc(-c2ncn3c2[C@@H]2CCN2C(=O)c2sccc2-3)o1`, with 133 to 135 °C.

Compound `O=C(O)COc1cccc2c1CCc1sc(SC(c3ccccc3)c3ccccc3)nc1-2` gave a melting point of 176 to 179 °C. Then `O=c1c2ccccc2ncn1-c1nnn[nH]1`, with 259 to 260 °C; and `CN(Cc1ccc(NC(=O)C2=Cc3cc(-c4ccsc4)ccc3OCC2)cc1)C1CCOCC1`, with 194 to 195 °C; and `Cc1ccc2nc(C)n(C3CCC(=O)NC3=O)c(=O)c2c1` (stereo not drawn), with 270 to 272 °C. As for `Fc1ccc(-c2cn([C@H]3CN4CCC3CC4)nn2)cc1`, the melting point came to 139 °C.

The compound `Cc1cc(-c2ccc(S(N)(=O)=O)cc2)n(-c2ccc(F)cc2)c1Cl` gave a melting point of 119 to 120 °C. As for `CO[C@@H]1CC[C@H](C(=O)O)Cc2onc(-c3ccc(Cl)cc3)c21` (relative stereo), the figure is 168 to 170 °C. Then `CCCCn1c(=O)c2[nH]cnc2n(CCCC)c1=S`, with 137 °C; and `N#Cc1ncccc1COc1cccc(F)c1`, with 52 to 53 °C. Compound `CC(=O)OCC1OC(N)C(OC(C)=O)C(OC(C)=O)C1OC(C)=O` (stereo not drawn) yielded a melting point of 145 to 147 °C. Regarding `COc1cc2c(c3c1c(=O)c1cc4ccccc4cc1n3C)C=CC(C)(C)O2`, the melting point turned out to be 188 °C. As for `Cc1nnc(-c2ccccc2)c2nc(OCc3ncnn3C)c(C3CCCC3)n12`, the figure is 137 °C; as for `COc1ccc(-n2c(-c3ccc([N+](=O)[O-])cc3)nnc2C(C)O)cc1` (stereo not drawn), 140 °C; as for `CCOC(=O)NC(C)CC(NC(=O)OCC)NC(=O)OCC` (stereo not drawn), 103 to 105 °C.

`CS(=O)(=O)c1ccc(-n2cc(-c3cccc(Cl)c3)nc2-c2ccc(Cl)cc2)cc1` returned a melting point of 156 to 159 °C. The compound `CCOC(=O)[C@@H]1O[C@@H]1c1ccc(C)cc1` yielded a melting point of 66 °C. Then `CCC=C(c1ccccc1N1CCCC(C)(C)C1)C(C(N)=O)c1ccc(C(=O)OCC)cc1` (stereo not drawn), with 113 to 116 °C; and `O=C1CNC(=O)N1c1cc(Cl)cc(Cl)c1`, with 199 °C.

Regarding `COc1ccccc1NC(=O)Nc1nc(O)ncc1F`, the melting point lay in the range of 247 to 250 °C. As for `CCCCCCCCCCC[C@H](CC(=O)N[C@@H](CO)C(=O)OCc1ccccc1)OC(=O)CCCCCCC`, the figure is 50 to 51 °C; as for `COC(=O)c1ccccc1C1=NC(C)(C(C)C)C(=O)N1` (stereo not drawn), 113 to 114 °C; as for `O=C1c2ccccc2OCN1CCCCCO[N+](=O)[O-]`, 39 to 41 °C.

Regarding `Cc1nc2cc(C34CC5CC(CC(C5)C3)C4)cc(-c3cccc(C=C4SC(=S)NC4=O)c3)c2o1`, the melting point was 310 °C. As for `COc1ccc(OCC#N)c(SCC#N)c1`, the figure is 53 to 54 °C. As for `COc1ccc(-c2ccccc2-c2c(Cl)nc3ncnn3c2Cl)c(Cl)c1`, the figure is 163 °C; as for `CN1CCN(c2c(Br)cc3c4c(cccc24)C(=O)N(O)C3=O)CC1`, 184 to 186 °C. As for `CSC1C(=O)Nc2ccc(Oc3cc(F)c(C(F)(F)F)c(Cl)c3)cc21` (stereo not drawn), the figure is 137 to 142 °C; as for `CCCCCCNc1ccc([N+](=O)[O-])cc1C(=O)O`, 161 to 163 °C; as for `COc1ccc(S(=O)(=O)Nc2cccc(C)c2NC(=O)c2cccnc2)cc1`, 207 to 209 °C. Consider `CCCCN1C(=O)CC(=O)N(c2ccccc2)c2cc(Cl)ccc21`, for which the melting point fell in the range of 159 to 161 °C. As for `Nc1nc(O)c2c(n1)NCC(CCc1cc(C(=O)O)n[nH]1)C2` (stereo not drawn), the figure is above 260 °C; as for `CC(=S)NCC1CN(c2ccc(-c3csc(Cn4cncn4)n3)c(F)c2)C(=O)O1` (stereo not drawn), 82 to 84 °C. `Cc1cc2c(-c3ccccc3C)c(NC(=O)Nc3ccc(F)cc3F)c(=O)n(C)c2cc1C` displayed a melting point of 225 to 226 °C. In turn, `Brc1ccc2c(CCN3CCCCC3)c(-c3ccccc3)[nH]c2c1` showed a melting point above 230 °C. As for `Cc1ccc(-n2c(-c3cc(C)ccc3C=Cc3ccccc3)ccc2-c2cc(C)ccc2C=Cc2ccccc2)cc1`, the figure is 314 to 316 °C; as for `CC(C)(C)Sc1c(CC(C)(C)C(=O)O)n(Cc2ccc(Cl)cc2)c2ccc(OCc3cnc4ccccc4n3)cc12`, 216 to 219 °C. Then `CC(C)=CCc1cc(C2CC(=O)c3ccc(O)cc3O2)ccc1O` (stereo not drawn), with 76 to 78 °C. Then `COC(=O)c1cc(O)cc(OCCCOc2ccc(OCc3ccccc3)cc2)c1`, with 120 to 122 °C; and `CC#CCOc1cc(OCc2cccc(F)c2F)ncn1`, with 84.9 °C. Consider `CCCN1C=CC=C2C(=O)NC(c3ccccc3OCC)N=C21` (stereo not drawn), for which the melting point is 134 to 137 °C. Regarding `CC(C)c1ccc(C(C)(C)C)c(O)c1C(=O)Nc1ccc(S(=O)(=O)C(F)(F)F)cc1Cl`, the melting point was 116 °C. Consider `CC(C)(C)C(=O)OCCN1CCN(c2nc(N)ncc2Oc2ccc(Cl)cc2)CC1`, for which the melting point was in the range of 123 to 125 °C. Turning to `O=c1cc(-c2ccccc2)oc2ncc(CN3CCCC3)cc12`, the melting point is 294 to 296 °C.

For the compound `O=C(Nc1ccccc1)c1ccc(F)c(NC(=S)Nc2cc(Cl)cc(Cl)c2)c1`, the melting point was in the range of 173 to 175 °C. As for `OCc1cccc(Nc2nc(Oc3ccccc3)nc(Oc3ccccc3Cl)n2)c1`, the figure is 52 to 54 °C; as for `COc1nc(C)c(C)cc1N`, 56 to 58 °C; as for `COc1ccc(Cc2sccc2OC2OC(CO)C(O)C(O)C2O)cc1` (stereo not drawn), 154 to 155 °C. As for `O=c1[nH]c(=O)n(C2CC(OCc3cccc4ccccc34)C(CO)O2)cc1F` (stereo not drawn), the figure is 159 to 160 °C.

The compound `Cc1c(NC(=O)c2ccc(-c3ccccc3)c(F)c2)ccc2cc(CN3CCCCCC3)cnc12` yielded a melting point of 129 to 130 °C. As for `Cc1cccc([N+](=O)[O-])c1C(=O)N[C@@H]1c2cc(OC(F)(F)F)ccc2OC(C)(C)[C@H]1O`, the figure is 204 to 206 °C; as for `COC(=O)c1ccc(-c2nc(-c3ccc(Br)cc3)cs2)cc1`, 206 to 207 °C; as for `Cc1ccsc1C(Cc1ccccc1N)N(C)C` (stereo not drawn), 75 to 77 °C. As for `O=S(=O)(c1ccccc1)c1ccc2c(c1)NCC(C(F)F)(C(F)F)O2`, the figure is 100 to 113 °C. Then `COC(=O)C(CO)Nc1ccccc1[N+](=O)[O-]` (racemic), with 138 to 140 °C; and `CCN(CC)C(=O)Cc1ccccc1OC`, with 141 °C; and `COC(=O)c1ccc([N+](=O)[O-])c([N+](=O)[O-])c1`, with 85 to 86 °C. Compound `Cc1ccc(C2SC(=O)NC2=O)cc1C` (stereo not drawn) showed a melting point of 121 to 122 °C. As for `Cc1c(NC(=O)CC(C)(C)C)c(C)c2c(C)coc2c1Cc1ccc(C(C)C)cc1`, the figure is 171 to 172 °C; as for `CON(C)C(=O)c1ocnc1C`, 59 to 60 °C. Then `CC(C)C1CC(=O)C(C(=O)NS(=O)(=O)c2ccc(Cl)cc2)C(=O)C1` (stereo not drawn), with 100 to 102 °C; and `CCOC(=O)c1cn(CC)c2nc(N3CCN(CC)CC3)ncc2c1=O`, with 161 °C. Then `Cc1cccc(-n2nc(C)cc2-c2ccnc(NCc3ccccc3)c2)c1`, with 73 to 75 °C; and `Nc1ccc(NC(=O)CN2CCCCC2)cc1`, with 106 to 107 °C. For the compound `CC(C)=CCCC(C)CCS(=O)c1nc2ccccc2[nH]1` (single isomer, unassigned; (+)), the melting point lay within 122 to 124 °C. Then `CCCc1nc2c(N)nc3cccnc3c2n1CC1(O)CC1`, with 199 to 200 °C. Then `CC(C)(C)OC(=O)NCCC(=O)NCCC(=O)OCc1ccccc1`, with 84 to 85 °C; and `COCN(c1cccc2cc(C(=O)O)n(COC)c12)S(=O)(=O)c1cccs1`, with 183 to 184 °C. Then `COc1ccc(S(=O)(=O)Nc2ccccc2NC(=O)c2cccc(O)c2)cc1`, with 191 to 192 °C. `COc1ccc(N2C(=O)C3=C(SCCS3)C2O)cc1` (stereo not drawn) came in with a melting point of 153 to 154 °C. As for `CC(C)c1nc(CCCOc2ncccc2CC(=O)O)c(Cc2ccc(Cl)cc2Cl)s1`, the figure is 106 to 107 °C. Then `NC(=O)C=Cc1cccc(NC(=O)c2cc(-c3cccc(F)c3)ccc2F)c1`, with 216 to 218 °C. In turn, `Cn1c(=O)c2c(OCc3ccccc3)cccc2n2cnc(-c3noc(C4CC4)n3)c12` yielded a melting point of 221 to 224 °C. Then `CCCOc1ccccc1-c1nc2nc(SC)ncc2c(=O)[nH]1`, with 179 to 181 °C; and `Cc1ccc(Sc2cncc3sc(C(=O)Nc4ccc(Cl)cc4)cc23)cc1`, with 208 to 211 °C.

`CCn1c(C(O)(c2cccc(C(F)(F)F)c2)c2cccc(C(F)(F)F)c2)nc(-c2ccncc2)c1-c1ccc(Cl)cc1` returned a melting point of 193 to 195 °C. On to `C=CCc1c(N)ccc2c(=O)cc(C(=O)OCC)oc12`, for which the melting point lay within 142 to 143 °C. The compound `NS(=O)(=O)c1ccc2c(c1)C(=O)C1(CCOC1=O)S2` (stereo not drawn) yielded a melting point of 199 to 201 °C.

`CC(=O)c1ccc(C)cc1N(C)C=O`: the melting point is 58 to 60 °C.

As for `O=c1ccc2cnc(Nc3ccccc3)nc2[nH]1`, the melting point was above 350 °C. As for `Cc1cc(C(=O)NC2CC2)ccc1N1CCN(Cc2cc(C)c3c(c2)NC(=O)C(C)O3)CC1` (stereo not drawn), the figure is 241 to 242 °C; as for `Cc1nc(Br)c(S(C)(=O)=O)c(Br)n1`, 161 to 162 °C.

`Cc1noc(NC(=O)N2CCN(c3nc(-c4cccc(C(F)(F)F)c4)cs3)CC2)c1C` came in with a melting point of 230 to 231 °C.

In general, melting point refers to the temperature of the solid-liquid transition.
